Where “and” joins values, the source holds several entries; their conditions need not be identical. Equal entries are not always repeated.
Test system: sulfotransferase in hair follicles
Test: In-vitro evaluation of sulfotransferase up-regulation in plucked hair follicles
Type: cell-based, human
Conditions: for OD 405 (1)-(3), individual replicates / OD 405 Average: 24 h incubation, patient AB-001; for induction of sulfotransferase activity in plucked hair follicles (conclusion): 24 h
Method: The following experiment was conducted to assess the up-regulation of sulfotransferase in hair follicles by candidate compounds know to interact with human nuclear receptors (e.g., PXR and CAR).
Method: For each compound tested, 24 hairs were plucked from a human subject. […] 1 uL of DMSO with no compound was added to control samples. Hairs were allowed to incubate with the candidate compounds for 24 h at room temperature. All samples were run in triplicate, i.e., the data describe in the result section is an average of three samples tested.
After 24 h of incubation hairs were removed from the sample media and washed briefly with clean water. Hairs were trimmed to a length of ˜1 cm and immersed, bulb first, in 100 μL of an assay solution containing 50 mM phosphate buffer (pH8), 5 mM potassium p-nitrophenyl sulfate, 20 μM adenosine 3′,5′-diphosphate, 100 μM minoxidil and 5 mM MgCl2. Hairs were allowed to react with the solution for 24 hours at room temperature. After incubation, hairs were removed and the optical absorbance of the solution at 405 nm was determined with a spectrophotometer using a single scan and 1 cm path length.

[1] = 10 uM, DMSO control average 0.120 (Vitamin K2 run), 0.241 (Genistein run)
[2] = 25 uM, DMSO control average 0.241
[3] = 50 uM, DMSO control average 0.241
[4] = 0.2 uM, DMSO control average 0.195
[5] = 1 uM, DMSO control average 0.195
[6] = 5 uM, DMSO control average 0.120 (Vitamin K2 run), 0.195 (Hyperforin run)
[7] = 20 uM, DMSO control average 0.120

With `O=c1c(-c2ccc(O)cc2)coc2cc(O)cc(O)c12` [Genistein, genistein] the “OD 405 (1)-(3), individual replicates” value [1] was 0.186 and 0.235 and 0.134, the “OD 405 Average” value [1] was 0.185 and the “OD 405 (1)-(3), individual replicates” value [2] was 0.179 and 0.144 and 0.085. The “OD 405 Average” value [2] was 0.136, the “OD 405 (1)-(3), individual replicates” value [3] was 0.122 and 0.080 and 0.190 and the “OD 405 Average” value [3] was 0.131. For the same compound, the “induction of sulfotransferase activity in plucked hair follicles (conclusion)” value (shortened to “induction of sulfotransferase activity”) was “induced sulfotransferase activity”.

`CC(C)=CCC[C@]1(C)[C@@H](CC=C(C)C)C[C@@]2(CC=C(C)C)C(=O)[C@]1(C(=O)C(C)C)C(=O)C(CC=C(C)C)=C2O` [Hyperforin, hyperforin] was tested, and the “OD 405 (1)-(3), individual replicates” value [4] was 0.411 and 0.360 and 0.298, the “OD 405 Average” value [4] was 0.356 and the “OD 405 (1)-(3), individual replicates” value [5] was 0.475 and 0.402 and 0.369. The “OD 405 Average” value [5] was 0.415, the “OD 405 (1)-(3), individual replicates” value [6] was 0.523 and 0.506 and 0.489 and the “OD 405 Average” value [6] was 0.506. The “induction of sulfotransferase activity” value was “induced sulfotransferase activity”.

With `CC(C)=CCC/C(C)=C/CC/C(C)=C/CC/C(C)=C/CC1=C(C)C(=O)c2ccccc2C1=O` [Vitamin K2, vitamin K2] the “OD 405 (1)-(3), individual replicates” value [6] was 0.176 and 0.211 and 0.173, the “OD 405 Average” value [6] was 0.187 and the “OD 405 (1)-(3), individual replicates” value [1] was 0.339 and 0.138 and 0.180. The “OD 405 Average” value [1] was 0.219, the “OD 405 (1)-(3), individual replicates” value [7] was 0.145 and 0.208 and 0.144 and the “OD 405 Average” value [7] was 0.166. For the same compound, the “induction of sulfotransferase activity” value was “induced sulfotransferase activity”.
